Laboratory results published in BindingDB's records for patent US20250313563 (The Broad Institute, 2025).
Several values for one entry are separate records, joined by “and”; a condition that tells them apart may be missing. Equal entries are not always repeated.

Key:
[1] = molecular target: Glycogen synthase kinase-3 alpha (Homo sapiens, UniProt P49840); experiment: TR-FRET Assay
Method in brief: (§1)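 30 min preinc w/ cpd in assay buffer → kinase rxn → EDTA quench → add detection mix (40 nM SA-d2, 2 nM Tb-pSer641 Ab) → TR-FRET read.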

[2] = molecular target: Glycogen synthase kinase-3 beta (Homo sapiens, UniProt P49841); experiment: TR-FRET Assay
Method in brief: as §1

Chain of Glycogen synthase kinase-3 alpha (P49840 whole entry): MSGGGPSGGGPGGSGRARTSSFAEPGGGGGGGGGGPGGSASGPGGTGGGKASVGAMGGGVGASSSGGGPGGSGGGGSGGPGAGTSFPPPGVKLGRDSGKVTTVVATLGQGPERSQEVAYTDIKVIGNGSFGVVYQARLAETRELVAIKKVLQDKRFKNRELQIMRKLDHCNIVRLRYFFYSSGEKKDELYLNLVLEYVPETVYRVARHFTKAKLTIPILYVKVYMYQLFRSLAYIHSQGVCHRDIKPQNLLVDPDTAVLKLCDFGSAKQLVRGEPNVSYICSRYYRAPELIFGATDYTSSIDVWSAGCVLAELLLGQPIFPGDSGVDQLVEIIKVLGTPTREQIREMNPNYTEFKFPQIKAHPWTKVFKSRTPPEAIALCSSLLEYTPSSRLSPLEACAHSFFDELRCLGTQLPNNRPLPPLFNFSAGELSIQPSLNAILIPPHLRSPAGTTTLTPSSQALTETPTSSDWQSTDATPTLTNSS
Chain of Glycogen synthase kinase-3 beta (P49841 whole entry): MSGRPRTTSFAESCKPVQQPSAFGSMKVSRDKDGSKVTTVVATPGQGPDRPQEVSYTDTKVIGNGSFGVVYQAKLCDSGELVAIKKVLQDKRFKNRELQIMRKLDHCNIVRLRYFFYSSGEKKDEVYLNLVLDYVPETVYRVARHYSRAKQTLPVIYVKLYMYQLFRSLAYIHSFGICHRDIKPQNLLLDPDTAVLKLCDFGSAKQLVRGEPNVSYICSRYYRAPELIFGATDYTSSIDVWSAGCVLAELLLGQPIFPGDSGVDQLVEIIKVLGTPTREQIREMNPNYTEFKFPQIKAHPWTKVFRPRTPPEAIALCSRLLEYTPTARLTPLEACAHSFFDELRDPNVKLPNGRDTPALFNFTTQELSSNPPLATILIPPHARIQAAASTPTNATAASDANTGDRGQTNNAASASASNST

Row | Structure (SMILES) | IC50 [1] | IC50 [2]
1 | CC[C@]1(c2ccccc2)C2=CN=NC2NC2=C1C(=O)[C@@H](C)C[C@@H]2C (some centres undefined) [US20250313563, Compound 865202] | > 5 µM | > 5 µM
2 | CCC1(c2cccc(C(F)(F)F)c2)C2=CN=NC2NC2=C1C(=O)NCC2 (centres undefined) [US20250313563, Compound 870263] | 0.1 to 1 µM | > 5 µM
3 | CC[C@]1(c2cccc(N(C)c3ccncc3)c2)C2=CN=NC2NC2=C1C(=O)CC(C)(C)C2 (some centres undefined) [US20250313563, Compound 874260] | < 0.1 µM | 0.1 to 1 µM
4 | CCC1(c2cccc(N(C)c3ccccn3)c2)C2=CN=NC2NC2=C1C(=O)CC(C)(C)C2 (centres undefined) [US20250313563, Compound 874294] | < 0.1 µM | 0.1 to 1 µM
5 | CCC1(c2cccc(N3CCOCC3)c2)C2=C(CC(C)(C)CC2=O)NC2N=NC(C)=C21 (centres undefined) [US20250313563, Compound 874312] | < 0.1 µM | < 0.1 µM
6 | CCC1(COCc2ccccc2)C2=C(N=NC2)NC2=C1C(=O)CC(C)(C)C2 (centres undefined) [US20250313563, Compound 874313] | 1 to 5 µM | 1 to 5 µM
7 | CCC1(c2cccc(N3CCCC3)c2)C2=C(CC(C)(C)CC2=O)NC2N=NC(C)=C21 (centres undefined) [US20250313563, Compound 874314] | < 0.1 µM | < 0.1 µM
8 | CC[C@@]1(c2cccc(-c3ccncc3)c2)C2=CN=NC2NC2=C1C(=O)C[C@H](C)C2 (some centres undefined) [US20250313563, Compound 874316] | 0.1 to 1 µM | 1 to 5 µM
9 | CC[C@]1(c2cccc(-c3ccncc3)c2)C2=CN=NC2NC2=C1C(=O)C[C@@H](C)C2 (some centres undefined) [US20250313563, Compound 874317] | < 0.1 µM | < 0.1 µM
10 | CC[C@]1(c2cccc(-c3ccncc3)c2)C2=CN=NC2NC2=C1C(=O)C[C@H](C)C2 (some centres undefined) [US20250313563, Compound 874318] | < 0.1 µM | 0.1 to 1 µM
11 | C[C@@H]1CCC[C@@]12C1=CN=NC1NC1=C2C(=O)CC(C)(C)C1 (some centres undefined) [US20250313563, Compound 874319] | 1 to 5 µM | 1 to 5 µM
12 | C[C@H]1CCC[C@]12C1=CN=NC1NC1=C2C(=O)CC(C)(C)C1 (some centres undefined) [US20250313563, Compound 874320] | 1 to 5 µM | 1 to 5 µM
13 | CC1(C)CC(=O)C2=C(C1)NC1N=NC(CCC(F)(F)F)=C1[C@@]21CCc2c(F)cccc21 (some centres undefined) [US20250313563, Compound 874323] | 1 to 5 µM | 1 to 5 µM
14 | CC1(C)CC(=O)C2=C(C1)NC1N=NC(CCC(F)(F)F)=C1[C@]21CCc2c(F)cccc21 (some centres undefined) [US20250313563, Compound 874324] | 0.1 to 1 µM | 0.1 to 1 µM
15 | CC1(C)CC(=O)C2=C(C1)NC1=C(CN=N1)C21CC2(CCCC2)C1 [US20250313563, Compound 874477] | < 0.1 µM and 0.1 to 1 µM | < 0.1 µM and 1 to 5 µM
16 | CC1(C)CC(=O)C2=C(C1)NC1=C(CN=N1)C21CCC1 [US20250313563, Compound 874509] | 0.1 to 1 µM | 0.1 to 1 µM
17 | CC[C@@]1(c2ccccc2)C2=C(CC(C)(C)CC2=O)NC2N=NC(C(F)F)=C21 (some centres undefined) [US20250313563, Compound 874510] | 0.1 to 1 µM | 0.1 to 1 µM
18 | CC[C@]1(c2ccccc2)C2=C(CC(C)(C)CC2=O)NC2N=NC(C(F)F)=C21 (some centres undefined) [US20250313563, Compound 874511] | < 0.1 µM | 0.1 to 1 µM
19 | CC1(C)CC(=O)C2=C(C1)NC1=C(CN=N1)C21CC(C(F)(F)F)C1 (centres undefined) [US20250313563, Compound 874527] | < 0.1 µM | 0.1 to 1 µM

Row | Structure (SMILES) | IC50 [1] | IC50 [2]
20 | CC1(C)CC(=O)C2=C(C1)NC1=C(CN=N1)C21CCN(CC(F)(F)F)CC1 [US20250313563, Compound 874528] | < 0.1 µM | 0.1 to 1 µM
21 | CC1(C)CC(=O)C2=C(C1)NC1=C(CN=N1)C21CCN(c2ccncn2)CC1 [US20250313563, Compound 874529] | 0.1 to 1 µM | 1 to 5 µM
22 | CC1(C)CC(=O)C2=C(C1)NC1=C(CN=N1)C21CCN(S(=O)(=O)c2ccccc2)CC1 [US20250313563, Compound 874530] | < 0.1 µM and 0.1 to 1 µM | < 0.1 µM and 1 to 5 µM
23 | C[C@@H]1CCC[C@@]2(C1)C1=C(N=NC1)NC1=C2C(=O)CC(C)(C)C1 [US20250313563, Compound 874532] | < 0.1 µM | < 0.1 µM
24 | CC1(C)CC(=O)C2=C(C1)NC1N=NC=C1C21CC2(CCOCC2)C1 (centres undefined) [US20250313563, Compound 874534] | < 0.1 µM and 0.1 to 1 µM | < 0.1 µM and 0.1 to 1 µM
25 | CC1(C)CC(=O)C2=C(C1)NC1=C(CN=N1)[C@]21CCCOCC1 [US20250313563, Compound 874535] | < 0.1 µM | < 0.1 µM
26 | CC1(C)CC(=O)C2=C(C1)NC1=C(CN=N1)[C@@]21CCCOCC1 [US20250313563, Compound 874536] | 0.1 to 1 µM | 1 to 5 µM
27 | C[C@@H]1CCC[C@]2(C1)C1=C(N=NC1)NC1=C2C(=O)CC(C)(C)C1 [US20250313563, Compound 874537] | 0.1 to 1 µM | 0.1 to 1 µM
28 | CC1(C)CC(=O)C2=C(C1)NC1=C(CN=N1)C21CCC(c2ccccc2)CC1 (centres undefined) [US20250313563, Compound 874975] | < 0.1 µM | < 0.1 µM
29 | CC[C@@]1(c2cccc(N(C)c3ccccn3)c2)C2=CN=NC2NC2=C1C(=O)CC(C)(C)C2 (some centres undefined) [US20250313563, Compound 875568] | < 0.1 µM | < 0.1 µM
30 | CC[C@]1(c2cccc(N(C)c3ccccn3)c2)C2=CN=NC2NC2=C1C(=O)CC(C)(C)C2 (some centres undefined) [US20250313563, Compound 875608] | 1 to 5 µM | > 5 µM
31 | CC1N=NC2=C1C1(CC3(CCC3)C1)C1=C(CC(C)(C)CC1=O)N2 (centres undefined) [US20250313563, Compound 877295] | > 5 µM | > 5 µM
32 | CCC1(c2cccc(NC(C)=O)c2)C2=CN=NC2NC2=C1C(=O)CC(C)(C)C2 (centres undefined) [US20250313563, Compound 877310] | < 0.1 µM | 0.1 to 1 µM
33 | CCC1(c2cccc(N3CCCCC3)c2)C2=C(CC(C)(C)CC2=O)NC2N=NC(C)=C21 (centres undefined) [US20250313563, Compound 877311] | < 0.1 µM | < 0.1 µM
34 | CC1(C)CC(=O)C2=C(C1)NC1=C(CN=N1)[C@]21CCOC1 [US20250313563, Compound 877313] | 0.1 to 1 µM | 0.1 to 1 µM
35 | CC1(C)CC(=O)C2=C(C1)NC1=C(CN=N1)[C@@]21CCOC1 [US20250313563, Compound 877314] | 0.1 to 1 µM | 1 to 5 µM
36 | CC1(C)CC(=O)C2=C(C1)NC1=C(CN=N1)C21CCN(c2ccncc2)CC1 [US20250313563, Compound 880765] | > 5 µM | > 5 µM
37 | CC1(C)CC(=O)C2=C(C1)NC1=C(CN=N1)C21CCN(S(C)(=O)=O)CC1 [US20250313563, Compound 880776] | < 0.1 µM | < 0.1 µM
38 | CC1(C)CC(=O)C2=C(NC3N=NC=C3C23CCOCC3)[C@H]1F (some centres undefined) [US20250313563, Compound 883833] | 0.1 to 1 µM | 1 to 5 µM

Row | Structure (SMILES) | IC50 [1] | IC50 [2]
39 | CC1(C)CC(=O)C2=C(NC3=C(CN=N3)C23CCOCC3)[C@@H]1F [US20250313563, Compound 883834] | 0.1 to 1 µM | 1 to 5 µM
40 | CC1(C)CC2=C(C(=O)[C@@H]1F)C1(CCOCC1)C1=C(N=NC1)N2 [US20250313563, Compound 883835] | 0.1 to 1 µM | 0.1 to 1 µM
41 | CC1(C)CC2=C(C(=O)[C@H]1F)C1(CCOCC1)C1=C(N=NC1)N2 [US20250313563, Compound 883836] | 0.1 to 1 µM | 1 to 5 µM
42 | C[C@H]1CC[C@@]2(C1)C1=C(N=NC1)NC1=C2C(=O)CC(C)(C)C1 [US20250313563, Compound 883840] | 0.1 to 1 µM | 0.1 to 1 µM
43 | C[C@@H]1CC[C@]2(C1)C1=C(N=NC1)NC1=C2C(=O)CC(C)(C)C1 [US20250313563, Compound 883841] | 0.1 to 1 µM | 0.1 to 1 µM
44 | CC1(C)CC(=O)C2=C(C1)NC1=C(CN=N1)[C@@]21CCCC(C)(C)C1 [US20250313563, Compound 883846] | 0.1 to 1 µM | 1 to 5 µM
45 | CCC1(c2cccc(-c3ccnc(OC)c3)c2)C2=CN=NC2NC2=C1C(=O)CC(C)(C)C2 (centres undefined) [US20250313563, Compound 883850] | < 0.1 µM | 0.1 to 1 µM
46 | CCC1(c2cccc(-c3c(C)nn(C)c3C)c2)C2=CN=NC2NC2=C1C(=O)CC(C)(C)C2 (centres undefined) [US20250313563, Compound 883851] | < 0.1 µM | < 0.1 µM
47 | CCC1(c2cccc(-c3ccnn3C)c2)C2=CN=NC2NC2=C1C(=O)CC(C)(C)C2 (centres undefined) [US20250313563, Compound 883852] | < 0.1 µM | < 0.1 µM
48 | CC1(C)CC(=O)C2=C(C1)NC1=C(CN=N1)C21CC(C)(C)C1 [US20250313563, Compound 883864] | < 0.1 µM | 0.1 to 1 µM
49 | CC1=C2C(N=N1)NC1=C(C(=O)CC(C)(C)C1)C21CCCCC1 (centres undefined) [US20250313563, Compound 883865] | < 0.1 µM | 0.1 to 1 µM
50 | CCC1(c2ccc(C)cc2)C2=C(CC(C)(C)CC2=O)NC2N=NC(C(F)(F)F)=C21 (centres undefined) [US20250313563, Compound 883866] | < 0.1 µM | < 0.1 µM
51 | CCC1(c2ccccc2)C2=C(N=NC2)NC2=C1C(=O)N(C)CC2 (centres undefined) [US20250313563, Compound 883867] | > 5 µM | > 5 µM
52 | CC[C@]1(c2cccc(C)c2)C2=C(CC(C)(C)CC2=O)NC2N=NC(C(F)(F)F)=C21 (some centres undefined) [US20250313563, Compound 883872] | 1 to 5 µM | > 5 µM
53 | CC[C@]1(c2cccc(N3CCCC3)c2)C2=C(CC(C)(C)CC2=O)NC2N=NC(C)=C21 (some centres undefined) [US20250313563, Compound 883875] | 0.1 to 1 µM | 1 to 5 µM
54 | CC1(C)CC(=O)C2=C(C1)NC1=C(CN=N1)C21CCN(CC(F)F)CC1 [US20250313563, Compound 883962] | 0.1 to 1 µM | 0.1 to 1 µM
55 | CC1(C)CC(=O)C2=C(C1)NC1=C(CN=N1)C21CCC(F)(F)CC1 [US20250313563, Compound 883972] | < 0.1 µM | 0.1 to 1 µM
56 | CC1(C)CC(=O)C2=C(C1)NC1=C(CN=N1)C21CCSC1 (centres undefined) [US20250313563, Compound 883973] | < 0.1 µM | 0.1 to 1 µM
57 | CC1(C)CC(=O)C2=C(C1)NC1=C(CN=N1)C21CCC2(CC1)COC2 [US20250313563, Compound 883977] | < 0.1 µM | 0.1 to 1 µM
